Results reported in ChEMBL document CHEMBL4627246, “Pyroglutamide-Based P2X7 Receptor Antagonists Targeting Inflammatory Bowel Disease” (J Med Chem, 2020).

tested on: SK-MEL-2; test: Cytotoxicity against human SK-MEL-2 cells assessed as effect on cell growth at 10 uM incubated for 48 hrs by sulforhodamine B assay; format: cell-based; conditions: sk-mel-2, 48 h

| Compound | Activity |
| --- | --- |
| O=C1N[C@H](C(=O)NCc2ccc(Cl)cc2Cl)CO1 | Non-Toxic |
| CN1CCN(/C=C2\C[C@@H](C(=O)NCc3ccc(Cl)cc3Cl)N(c3cccs3)C2=O)CC1 | Non-Toxic |
| N#Cc1ccc(N2C(=O)CC[C@H]2C(=O)NCc2ccc(Cl)cc2Cl)cc1 | Non-Toxic |

tested on: SN12C; test: Cytotoxicity against human SN12C cells assessed as effect on cell growth at 10 uM incubated for 48 hrs by sulforhodamine B assay; format: cell-based; conditions: not given

| Compound | Activity |
| --- | --- |
| O=C1N[C@H](C(=O)NCc2ccc(Cl)cc2Cl)CO1 | Non-Toxic |
| CN1CCN(/C=C2\C[C@@H](C(=O)NCc3ccc(Cl)cc3Cl)N(c3cccs3)C2=O)CC1 | Non-Toxic |
| N#Cc1ccc(N2C(=O)CC[C@H]2C(=O)NCc2ccc(Cl)cc2Cl)cc1 | Non-Toxic |

tested on: MDA-MB-231; test: Cytotoxicity against human MDA-MB-231 cells assessed as effect on cell growth at 10 uM incubated for 48 hrs by sulforhodamine B assay; format: cell-based; conditions: mda-mb-231, 48 h

| Compound | Activity |
| --- | --- |
| O=C1N[C@H](C(=O)NCc2ccc(Cl)cc2Cl)CO1 | Non-Toxic |
| CN1CCN(/C=C2\C[C@@H](C(=O)NCc3ccc(Cl)cc3Cl)N(c3cccs3)C2=O)CC1 | Non-Toxic |
| N#Cc1ccc(N2C(=O)CC[C@H]2C(=O)NCc2ccc(Cl)cc2Cl)cc1 | Non-Toxic |

tested on: K562; test: Cytotoxicity against human K562 cells assessed as effect on cell growth at 10 uM incubated for 48 hrs by sulforhodamine B assay; format: cell-based; conditions: k562, 48 h

| Compound | Activity |
| --- | --- |
| O=C1N[C@H](C(=O)NCc2ccc(Cl)cc2Cl)CO1 | Non-Toxic |
| CN1CCN(/C=C2\C[C@@H](C(=O)NCc3ccc(Cl)cc3Cl)N(c3cccs3)C2=O)CC1 | Non-Toxic |
| N#Cc1ccc(N2C(=O)CC[C@H]2C(=O)NCc2ccc(Cl)cc2Cl)cc1 | Non-Toxic |

tested on: NCI-H226; test: Cytotoxicity against human NCI-H226 cells assessed as effect on cell growth at 10 uM incubated for 48 hrs by sulforhodamine B assay; format: cell-based; conditions: nci-h226, 48 h

| Compound | Activity |
| --- | --- |
| O=C1N[C@H](C(=O)NCc2ccc(Cl)cc2Cl)CO1 | Non-Toxic |
| CN1CCN(/C=C2\C[C@@H](C(=O)NCc3ccc(Cl)cc3Cl)N(c3cccs3)C2=O)CC1 | Non-Toxic |
| N#Cc1ccc(N2C(=O)CC[C@H]2C(=O)NCc2ccc(Cl)cc2Cl)cc1 | Non-Toxic |

tested on: RXF 393; test: Cytotoxicity against human RXF393 cells assessed as effect on cell growth at 10 uM incubated for 48 hrs by sulforhodamine B assay; format: cell-based; conditions: rxf 393, 48 h

| Compound | Activity |
| --- | --- |
| O=C1N[C@H](C(=O)NCc2ccc(Cl)cc2Cl)CO1 | Non-Toxic |
| CN1CCN(/C=C2\C[C@@H](C(=O)NCc3ccc(Cl)cc3Cl)N(c3cccs3)C2=O)CC1 | Non-Toxic |
| N#Cc1ccc(N2C(=O)CC[C@H]2C(=O)NCc2ccc(Cl)cc2Cl)cc1 | Non-Toxic |

tested on: MDA-MB-435; test: Cytotoxicity against human MDA-MB-435 cells assessed as effect on cell growth at 10 uM incubated for 48 hrs by sulforhodamine B assay; format: cell-based; conditions: mda-mb-435, 48 h

| Compound | Activity |
| --- | --- |
| O=C1N[C@H](C(=O)NCc2ccc(Cl)cc2Cl)CO1 | Non-Toxic |
| CN1CCN(/C=C2\C[C@@H](C(=O)NCc3ccc(Cl)cc3Cl)N(c3cccs3)C2=O)CC1 | Non-Toxic |
| N#Cc1ccc(N2C(=O)CC[C@H]2C(=O)NCc2ccc(Cl)cc2Cl)cc1 | Non-Toxic |

tested on: HOP-62; test: Cytotoxicity against human HOP62 cells assessed as effect on cell growth at 10 uM incubated for 48 hrs by sulforhodamine B assay; format: cell-based; conditions: hop-62, 48 h

| Compound | Activity |
| --- | --- |
| O=C1N[C@H](C(=O)NCc2ccc(Cl)cc2Cl)CO1 | Non-Toxic |
| CN1CCN(/C=C2\C[C@@H](C(=O)NCc3ccc(Cl)cc3Cl)N(c3cccs3)C2=O)CC1 | Non-Toxic |
| N#Cc1ccc(N2C(=O)CC[C@H]2C(=O)NCc2ccc(Cl)cc2Cl)cc1 | Non-Toxic |

tested on: SF-268; test: Cytotoxicity against human SF268 cells assessed as effect on cell growth at 10 uM incubated for 48 hrs by sulforhodamine B assay; format: cell-based; conditions: sf-268, 48 h

| Compound | Activity |
| --- | --- |
| O=C1N[C@H](C(=O)NCc2ccc(Cl)cc2Cl)CO1 | Non-Toxic |
| CN1CCN(/C=C2\C[C@@H](C(=O)NCc3ccc(Cl)cc3Cl)N(c3cccs3)C2=O)CC1 | Non-Toxic |
| N#Cc1ccc(N2C(=O)CC[C@H]2C(=O)NCc2ccc(Cl)cc2Cl)cc1 | Non-Toxic |

tested on: SK-MEL-28; test: Cytotoxicity against human SK-MEL-28 cells assessed as effect on cell growth at 10 uM incubated for 48 hrs by sulforhodamine B assay; format: cell-based; conditions: sk-mel-28, 48 h

| Compound | Activity |
| --- | --- |
| O=C1N[C@H](C(=O)NCc2ccc(Cl)cc2Cl)CO1 | Non-Toxic |
| CN1CCN(/C=C2\C[C@@H](C(=O)NCc3ccc(Cl)cc3Cl)N(c3cccs3)C2=O)CC1 | Non-Toxic |
| N#Cc1ccc(N2C(=O)CC[C@H]2C(=O)NCc2ccc(Cl)cc2Cl)cc1 | Non-Toxic |

tested on: OVCAR-4; test: Cytotoxicity against human OVCAR4 cells assessed as effect on cell growth at 10 uM incubated for 48 hrs by sulforhodamine B assay; format: cell-based; conditions: ovcar-4, 48 h

| Compound | Activity |
| --- | --- |
| O=C1N[C@H](C(=O)NCc2ccc(Cl)cc2Cl)CO1 | Non-Toxic |
| CN1CCN(/C=C2\C[C@@H](C(=O)NCc3ccc(Cl)cc3Cl)N(c3cccs3)C2=O)CC1 | Non-Toxic |
| N#Cc1ccc(N2C(=O)CC[C@H]2C(=O)NCc2ccc(Cl)cc2Cl)cc1 | Non-Toxic |

tested on: UACC-257; test: Cytotoxicity against human UACC257 cells assessed as effect on cell growth at 10 uM incubated for 48 hrs by sulforhodamine B assay; format: cell-based; conditions: uacc-257, 48 h

| Compound | Activity |
| --- | --- |
| O=C1N[C@H](C(=O)NCc2ccc(Cl)cc2Cl)CO1 | Non-Toxic |
| CN1CCN(/C=C2\C[C@@H](C(=O)NCc3ccc(Cl)cc3Cl)N(c3cccs3)C2=O)CC1 | Non-Toxic |
| N#Cc1ccc(N2C(=O)CC[C@H]2C(=O)NCc2ccc(Cl)cc2Cl)cc1 | Non-Toxic |

tested on: BT-549; test: Cytotoxicity against human BT549 cells assessed as effect on cell growth at 10 uM incubated for 48 hrs by sulforhodamine B assay; format: cell-based; conditions: bt-549, 48 h

| Compound | Activity |
| --- | --- |
| O=C1N[C@H](C(=O)NCc2ccc(Cl)cc2Cl)CO1 | Non-Toxic |
| CN1CCN(/C=C2\C[C@@H](C(=O)NCc3ccc(Cl)cc3Cl)N(c3cccs3)C2=O)CC1 | Non-Toxic |
| N#Cc1ccc(N2C(=O)CC[C@H]2C(=O)NCc2ccc(Cl)cc2Cl)cc1 | Non-Toxic |

tested on: OVCAR-3; test: Cytotoxicity against human OVCAR3 cells assessed as effect on cell growth at 10 uM incubated for 48 hrs by sulforhodamine B assay; format: cell-based; conditions: ovcar-3, 48 h

| Compound | Activity |
| --- | --- |
| O=C1N[C@H](C(=O)NCc2ccc(Cl)cc2Cl)CO1 | Non-Toxic |
| CN1CCN(/C=C2\C[C@@H](C(=O)NCc3ccc(Cl)cc3Cl)N(c3cccs3)C2=O)CC1 | Non-Toxic |
| N#Cc1ccc(N2C(=O)CC[C@H]2C(=O)NCc2ccc(Cl)cc2Cl)cc1 | Non-Toxic |

tested on: MCF7; test: Cytotoxicity against human MCF7 cells assessed as effect on cell growth at 10 uM incubated for 48 hrs by sulforhodamine B assay; format: cell-based; conditions: mcf7, 48 h

| Compound | Activity |
| --- | --- |
| O=C1N[C@H](C(=O)NCc2ccc(Cl)cc2Cl)CO1 | Non-Toxic |
| CN1CCN(/C=C2\C[C@@H](C(=O)NCc3ccc(Cl)cc3Cl)N(c3cccs3)C2=O)CC1 | Non-Toxic |
| N#Cc1ccc(N2C(=O)CC[C@H]2C(=O)NCc2ccc(Cl)cc2Cl)cc1 | Non-Toxic |

tested on: Hs-578T; test: Cytotoxicity against human Hs 578T cells assessed as effect on cell growth at 10 uM incubated for 48 hrs by sulforhodamine B assay; format: cell-based; conditions: not given

| Compound | Activity |
| --- | --- |
| O=C1N[C@H](C(=O)NCc2ccc(Cl)cc2Cl)CO1 | Non-Toxic |
| CN1CCN(/C=C2\C[C@@H](C(=O)NCc3ccc(Cl)cc3Cl)N(c3cccs3)C2=O)CC1 | Non-Toxic |
| N#Cc1ccc(N2C(=O)CC[C@H]2C(=O)NCc2ccc(Cl)cc2Cl)cc1 | Non-Toxic |

tested on: CAKI-1; test: Growth inhibition of human Caki1 cells assessed as growth percentage at 10 uM incubated for 48 hrs by sulforhodamine B assay; format: cell-based; conditions: caki-1, 48 h

| Compound | Activity |
| --- | --- |
| O=C1N[C@H](C(=O)NCc2ccc(Cl)cc2Cl)CO1 | Non-Toxic |
| CN1CCN(/C=C2\C[C@@H](C(=O)NCc3ccc(Cl)cc3Cl)N(c3cccs3)C2=O)CC1 | Non-Toxic |
| N#Cc1ccc(N2C(=O)CC[C@H]2C(=O)NCc2ccc(Cl)cc2Cl)cc1 | Non-Toxic |

tested on: CCRF-CEM; test: Cytotoxicity against human CCRF-CEM cells assessed as effect on cell growth at 10 uM incubated for 48 hrs by sulforhodamine B assay; format: cell-based; conditions: not given

| Compound | Activity |
| --- | --- |
| O=C1N[C@H](C(=O)NCc2ccc(Cl)cc2Cl)CO1 | Non-Toxic |
| CN1CCN(/C=C2\C[C@@H](C(=O)NCc3ccc(Cl)cc3Cl)N(c3cccs3)C2=O)CC1 | Non-Toxic |
| N#Cc1ccc(N2C(=O)CC[C@H]2C(=O)NCc2ccc(Cl)cc2Cl)cc1 | Non-Toxic |

tested on: SK-MEL-5; test: Cytotoxicity against human SK-MEL-5 cells assessed as effect on cell growth at 10 uM incubated for 48 hrs by sulforhodamine B assay; format: cell-based; conditions: sk-mel-5, 48 h

| Compound | Activity |
| --- | --- |
| O=C1N[C@H](C(=O)NCc2ccc(Cl)cc2Cl)CO1 | Non-Toxic |
| CN1CCN(/C=C2\C[C@@H](C(=O)NCc3ccc(Cl)cc3Cl)N(c3cccs3)C2=O)CC1 | Non-Toxic |
| N#Cc1ccc(N2C(=O)CC[C@H]2C(=O)NCc2ccc(Cl)cc2Cl)cc1 | Non-Toxic |

tested on: LOX IMVI; test: Cytotoxicity against human LOXIMVI cells assessed as effect on cell growth at 10 uM incubated for 48 hrs by sulforhodamine B assay; format: cell-based; conditions: not given

| Compound | Activity |
| --- | --- |
| O=C1N[C@H](C(=O)NCc2ccc(Cl)cc2Cl)CO1 | Non-Toxic |
| CN1CCN(/C=C2\C[C@@H](C(=O)NCc3ccc(Cl)cc3Cl)N(c3cccs3)C2=O)CC1 | Non-Toxic |
| N#Cc1ccc(N2C(=O)CC[C@H]2C(=O)NCc2ccc(Cl)cc2Cl)cc1 | Non-Toxic |
